Several values for one entry are separate records, joined by “and”; a condition that tells them apart may be missing. Equal entries are not always repeated.
Assays:
[1] = molecular target: T1, SIRT1 (Homo sapiens, UniProt Q96EB6); assay: In vitro SIRT1 activity assay; conditions: IC50 SIRT1, mean ± SD of three independent experiments
T1 sequence (Q96EB6 1-747): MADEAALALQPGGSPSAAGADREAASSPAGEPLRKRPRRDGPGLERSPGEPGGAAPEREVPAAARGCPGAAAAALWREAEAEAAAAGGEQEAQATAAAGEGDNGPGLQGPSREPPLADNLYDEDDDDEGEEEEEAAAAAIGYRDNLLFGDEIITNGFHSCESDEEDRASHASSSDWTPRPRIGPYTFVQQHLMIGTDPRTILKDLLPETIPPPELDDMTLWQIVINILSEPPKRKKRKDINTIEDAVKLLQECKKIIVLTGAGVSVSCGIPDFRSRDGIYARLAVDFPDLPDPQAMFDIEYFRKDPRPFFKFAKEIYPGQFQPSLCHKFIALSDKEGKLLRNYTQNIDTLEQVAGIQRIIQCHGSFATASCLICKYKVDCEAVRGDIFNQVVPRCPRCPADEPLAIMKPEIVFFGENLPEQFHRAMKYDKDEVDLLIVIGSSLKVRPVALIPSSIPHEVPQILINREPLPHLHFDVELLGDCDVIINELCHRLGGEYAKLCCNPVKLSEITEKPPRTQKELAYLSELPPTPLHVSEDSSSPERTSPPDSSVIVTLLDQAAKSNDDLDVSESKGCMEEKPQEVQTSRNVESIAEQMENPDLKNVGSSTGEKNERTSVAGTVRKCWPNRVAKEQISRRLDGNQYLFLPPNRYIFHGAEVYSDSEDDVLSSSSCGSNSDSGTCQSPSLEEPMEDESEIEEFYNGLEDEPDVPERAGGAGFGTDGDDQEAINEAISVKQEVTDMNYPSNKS

[2] = tested on: A-549 cells; assay: Acetylation of sirtuin targets by Western blot, A-549; format: cell-based, human; conditions: A-549, 5 and 50 µM, 8 h
Protocol: Figure 5 Effect of eurochevalierine on the acetylation status of sirtuin targets. SK-MEL-28, U-373, and A-549 cells were treated with 5 and 50 µM eurochevalierine (EU) for 8 h. Acetylation of histone H4 (AcH4), histone H3 at lysine 56 (AcH3K56), and α-tubulin (Ac α-tubulin) was analyzed via Western blot. β-actin and histone H1 were used as loading controls for the analysis of total and acid extracts, respectively. SAHA (S, 1 µM) was used as a reference HDAC inhibitor. Blots are representative of three independent experiments.
Total proteins were extracted using the MPER® reagent (Thermo-scientific, Erembodegem-Aalst, Belgium) supplemented by 1× protease inhibitor cocktail (Complete EDTA-free, Roche, Prophac, Luxembourg, Luxembourg) according to manufacturer’s instructions. Histones were extracted as previously described. Western blots were carried out as previously reported.
Corresponding secondary antibodies were from Santa Cruz Biotechnology.

[3] = tested on: B16-F10 cells; assay: Sub-G1 fraction by PI flow cytometry, B16-F10; format: cell-based, murine; conditions: B16-F10, 50 µM, 72 h
[4] = molecular target: T2, HDAC11 (Homo sapiens, UniProt Q96DB2); assay: Selective in vitro HDAC activity assay, recombinant HDAC11; format: biochemical
T2 sequence (Q96DB2 1-347): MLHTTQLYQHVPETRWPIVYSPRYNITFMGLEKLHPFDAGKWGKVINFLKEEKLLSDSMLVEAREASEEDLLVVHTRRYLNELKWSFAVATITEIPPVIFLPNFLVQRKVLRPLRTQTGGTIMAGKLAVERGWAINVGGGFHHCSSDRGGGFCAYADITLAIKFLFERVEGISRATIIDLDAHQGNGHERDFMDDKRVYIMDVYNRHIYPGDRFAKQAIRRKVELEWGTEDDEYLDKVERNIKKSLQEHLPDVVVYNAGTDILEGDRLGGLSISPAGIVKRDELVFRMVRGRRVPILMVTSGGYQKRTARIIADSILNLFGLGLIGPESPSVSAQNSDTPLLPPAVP
Protocol: (§1) (a) In vitro total HDAC activity was evaluated using K-562 nuclear extracts in the presence of various concentrations of eurochevalierine. (b) Selective in vitro HDAC activity assays were carried out using selected recombinant HDAC proteins in the presence of various concentrations of eurochevalierine. Results are reported as percent of DMSO vehicle control and expressed as the mean ± SD of three independent experiments. * and ** indicate p < 0.05 and p < 0.01 versus untreated cells, respectively.

[5] = tested on: A-549 cells; assay: Sub-G1 fraction by PI flow cytometry, A-549; format: cell-based, human; conditions: A-549, 50 µM, 72 h
Protocol: Figure 2 Effect of eurochevalierine on cell cycle distribution. Cells were treated with 50 µM eurochevalierine for 72 h and then stained with propidium iodide (PI), and DNA content was measured by flow cytometry. (a) Cell cycle distribution profile in A-549 cells. Results of three independent experiments are represented on the same graph. (b) Quantification of the number of cells in sub-G1 fraction as a percentage of the total cell population. Results are expressed as mean ± SD of at least three independent experiments.
Cells were collected, fixed, and stained with the APO AF TUNEL detection kit (BD, Erembodegem, Belgium) allowing analysis of both apoptosis and cell cycle at the same time. The experiment was conducted accordingly to the procedure of the manufacturer. Data were obtained through flow cytometry with a Cell Lab Quanta apparatus (Analis, Suarlee, Belgium).

[6] = molecular target: T3, SIRT2 (Homo sapiens, UniProt Q8IXJ6); assay: In vitro SIRT2 activity assay; conditions: IC50 SIRT2, mean ± SD of three independent experiments
T3 sequence (Q8IXJ6 1-389): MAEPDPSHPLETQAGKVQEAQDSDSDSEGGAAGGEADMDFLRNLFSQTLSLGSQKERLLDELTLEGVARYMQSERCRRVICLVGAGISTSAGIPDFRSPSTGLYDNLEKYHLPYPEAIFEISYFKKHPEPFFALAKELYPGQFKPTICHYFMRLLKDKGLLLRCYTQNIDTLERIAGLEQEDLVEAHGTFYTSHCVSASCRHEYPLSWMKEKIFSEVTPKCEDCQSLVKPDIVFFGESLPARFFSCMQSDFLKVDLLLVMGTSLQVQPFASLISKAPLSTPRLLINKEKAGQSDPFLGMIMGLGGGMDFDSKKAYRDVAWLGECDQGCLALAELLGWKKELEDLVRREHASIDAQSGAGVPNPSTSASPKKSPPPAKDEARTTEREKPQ

[7] = molecular target: HDAC1 (Homo sapiens, UniProt Q13547); assay: Selective in vitro HDAC activity assay, recombinant HDAC1; format: biochemical; conditions: 100 µM
Sequence of HDAC1 (Q13547 whole entry): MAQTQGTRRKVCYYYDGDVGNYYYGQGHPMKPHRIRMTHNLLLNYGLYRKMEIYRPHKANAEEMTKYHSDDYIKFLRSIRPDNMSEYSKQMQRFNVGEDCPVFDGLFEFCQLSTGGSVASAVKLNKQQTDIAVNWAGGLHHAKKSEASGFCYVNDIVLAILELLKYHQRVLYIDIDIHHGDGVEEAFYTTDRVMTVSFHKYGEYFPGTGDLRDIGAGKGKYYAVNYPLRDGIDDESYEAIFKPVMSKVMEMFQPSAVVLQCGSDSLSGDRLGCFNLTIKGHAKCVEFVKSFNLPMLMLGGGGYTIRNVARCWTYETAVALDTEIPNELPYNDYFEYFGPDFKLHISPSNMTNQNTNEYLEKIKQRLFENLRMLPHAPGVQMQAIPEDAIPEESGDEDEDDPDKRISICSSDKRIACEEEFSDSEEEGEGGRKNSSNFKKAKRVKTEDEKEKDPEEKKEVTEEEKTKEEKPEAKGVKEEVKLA
Protocol: as §1

## C=C(C)[C@@H]1CC[C@@H](C)[C@@]2(O)[C@@H]1C=C(C)[C@@H](OC(C)=O)[C@@H]2OC(=O)[C@H](CC(=O)c1ccccc1NC)NC=O [Eurochevalierine, eurochevalierine]
[1]
  IC50: ~10 µM and 9.8 µM
[2]
  acetylation of sirtuin targets (AcH4, AcH3K56, Ac α-tubulin): robust and dose-dependent increase
[3]
  sub-G1 fraction: did not increase the sub-G1 fraction
[4]
  inhibition at 100 µM: ~51%
[5]
  sub-G1 fraction: did not increase the sub-G1 fraction
[6]
  IC50: 10 µM and ~10 µM and 10.2 µM
[7]
  effect on HDAC1 deacetylase activity: without effect

Source: article PMC6017873 (Molecules : A Journal of Synthetic Chemistry and Natural …, 2018)
